Experimental data: patent publication US12570604B2, “Polymorphic forms of a tetracycline compound and uses thereof” (Tetraphase Pharmaceuticals, Inc., priority 2018, dated 2026)

Legend:
[1] = Dynamic vapor sorption (DVS) of crystalline Forms A and B; format: physicochemical; details: 25° C., adsorption range 0% to 95% RH
Experimental: (§1) The crystalline forms provided can be additionally characterized by dynamic vapor sorption (DVS), wherein a sample is subjected to varying conditions of humidity and temperature, and the response of the sample is measured gravimetrically. The result of a DVS analysis particularly can be a dual curve providing sample weight percent as a function of relative humidity (RH) over time, a dual curve providing sample water content as a function of RH over time, a curve providing weight percent in relation to RH, or a curve providing water content in relation to RH. Equipment useful for measuring such data is known in the art, and any such equipment can be used to measure the compounds according to the present invention. In certain embodiments, DVS analysis can be carried out by scanning at a series of specific RH values. Thus, specific polymorphs according to the invention may be identified and described in relation to the representative graph and/or the approximate peaks obtained in DVS analysis, particularly scanning from 0% to 95% RH with a step interval of 5% or 10% RH.
DVS pattern for the crystalline Forms A and B was generated at 25° C. using a DVS Moisture Balance Flow System (Model Advantage) with the following conditions: sample size approximately 10 to 20 mg, drying at 25° C. for 60 minutes, adsorption range 0% to 95% RH, desorption range 95% to 0% RH, and step interval 5% RH. […]

[2] = Dynamic vapor sorption (DVS) of crystalline Forms C and D; format: physicochemical; details: for DVS rapid weight gain: in the range of 25-35% RH; for DVS low weight gain: in the range of 35-75% RH
Experimental: as §1
DVS data for the crystalline Forms C and D were collected on a Surface Measurement System DVS Intrinsic instrument. Samples were not dried prior to analysis. Sorption and desorption data were collected over a range from 5% to 95% RH at 10% RH increments under a nitrogen purge. The equilibrium criterion used for analysis was less than 0.0100% weight change in 5 minutes with a maximum equilibration time of 3 hours. Data were not corrected for the initial moisture content of the samples.

SMILES | DVS weight gain ([1]; at 75% RH) | DVS weight gain ([1]; at 95% RH) | DVS weight gain ([2]; in the range of 5-25% RH) | DVS rapid weight gain [2] | DVS weight gain ([2]; in the range of 35-45% RH) | DVS low weight gain [2] | DVS total weight gain ([2]; between 5 and 95% RH)
CN(C)[C@@H]1C(O)=C(C(N)=O)C(=O)[C@@]2(O)C(O)=C3C(=O)c4c(O)c(NC(=O)[C@@H]5CCCN5C)cc(F)c4C[C@H]3C[C@@H]12 [Form A, (S)—N-((5aR,6aS,7S,10aS)-9-carbamoyl-7-(dimethylamino)-4-fluoro-1,8,10a,11-tetrahydroxy-10,12-dioxo-5,5a,6,6a,7,10,10a,12-octahydrotetracen-2-yl)-1-methylpyrrolidine-2-carboxamide] | about 19% | about 40% | – | – | – | – | –
CN(C)[C@@H]1C(O)=C(C(N)=O)C(=O)[C@@]2(O)C(O)=C3C(=O)c4c(O)c(NC(=O)[C@@H]5CCCN5C)cc(F)c4C[C@H]3C[C@@H]12 [Form C, (S)—N-((5aR,6aS,7S,10aS)-9-carbamoyl-7-(dimethylamino)-4-fluoro-1,8,10a,11-tetrahydroxy-10,12-dioxo-5,5a,6,6a,7,10,10a,12-octahydrotetracen-2-yl)-1-methylpyrrolidine-2-carboxamide] | – | – | about 2.7% | about 10% | about 6.1% | about 3.7% | –
CN(C)[C@@H]1C(O)=C(C(N)=O)C(=O)[C@@]2(O)C(O)=C3C(=O)c4c(O)c(NC(=O)[C@@H]5CCCN5C)cc(F)c4C[C@H]3C[C@@H]12 [Form D, (S)—N-((5aR,6aS,7S,10aS)-9-carbamoyl-7-(dimethylamino)-4-fluoro-1,8,10a,11-tetrahydroxy-10,12-dioxo-5,5a,6,6a,7,10,10a,12-octahydrotetracen-2-yl)-1-methylpyrrolidine-2-carboxamide] | – | – | about 2.7% | about 10% | – | about 3.7% | about 39.2%
